Data as given in patent US10604514B2, “6-(5-membered heteroaryl)isoquinolin-3-yl carboxamides and preparation and use thereof” (Samumed, LLC, priority 2017, dated 2020).
pEC50: −log10 of the molar value. Where two headings read alike, the source gives them in different places.

Tests used:
[1] = tested on: Wnt activity (Sp5-Luc reporter in SW480 colon carcinoma cells); assay: Wnt activity screening assay (Sp5-Luc reporter gene assay); type: cell-based, human; conditions: Homo sapiens; for pEC50: Sp5-Luc reporter, SW480 cells, 36 to 48 hours
Excerpt: The screening assay for Wnt activity is described as follows. Reporter cell lines can be generated by stably transducing cancer cell lines (e.g., colon cancer) or primary cells (e.g., IEC-6 intestinal cells) with a lentiviral construct that includes a Wnt-responsive promoter driving expression of the firefly luciferase gene.
SW480 colon carcinoma cells were transduced with a lentiviral vector expressing luciferase with a human Sp5 promoter consisting of a sequence of eight TCF/LEF binding sites. SW480 cells stably expressing the Sp5-Luc reporter gene and a hygromycin resistance gene were selected by treatment with 150 μg/mL of hygromycin for 7 days. These stably transduced SW480 cells were expanded in cell culture and used for all further screening activities. Each compound was dissolved in DMSO as a 10 mM stock and used to prepare compound source plates. Serial dilution (1:3, 10-point dose-response curves starting from 10 μM) and compound transfer was performed using the ECHO 550 (Labcyte, Sunnyvale, Calif.) into 384-well white solid bottom assay plates (Greiner Bio-One) with appropriate DMSO backfill for a final DMSO concentration of 0.1%. For Sp5-Luc reporter gene assays, the cells were plated at 4,000 cells/well in 384-well plates with a DMEM medium containing 1% fetal bovine serum, and 1% Penicillin-Streptomycin and incubated for 36 to 48 hours at 37° C. and 5% CO2. Following incubation, 15 μl of BriteLite Plus luminescence reagent (Perkin Elmer) was added to each well of the 384-well assay plates. The plates were placed on an orbital shaker for 2 min and then luminescence was quantified using the Envision (Perkin Elmer) plate reader. Readings were normalized to DMSO only treated cells, and normalized activities were utilized for EC50 calculations using the dose-response log (inhibitor) vs. response -variable slope (four parameters) nonlinear regression feature available in GraphPad Prism 5.0 (or Dotmatics).

[2] = biological target: GSK3β kinase (Homo sapiens (Human), UniProt P49841); assay: GSK3β kinase assay (Ser/Thr 09 peptide Z-lyte, FRET); type: biochemical; conditions: method text calls the value IC50;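 also: Coumarin/fluorescein emission ratio converted to percent phosphorylation against unphosphorylated (0%) and phosphorylated (100%) controls, 1 h compound incubation at room temperature, 11-point threefold dilutions from 10 µM, run in duplicate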
Procedure: Representative compounds were screened using the assay procedure for GSK30 kinase activity as described below.
Each compound is dissolved in DMSO as a 10 mM stock and used to prepare compound source plates. Serial dilution (1:3, 11-point dose-response curves from 10 M to 0.0003 μM) and compound transfer was performed using the ECHO 550 (Labcyte, Sunnyvale, Calif.) into 1536-well black-walled round bottom plates (Corning).
This is a non-radioactive assay using fluorescence resonance energy transfer (FRET) between coumarin and fluorescein to detect kinase activity which is represented as ratio of coumarin emission/fluorescein emission.
The mixture is allowed to incubate with the representative compounds for one hour at room temperature. All reactions were performed in duplicate. Unphosphorylated (“0% Control”) and phosphorylated (“100% control”) forms of Ser/Thr 18 serve as control reactions.
After incubation, diluted Development Buffer is added to the reaction and allowed to further incubate for one hour at room temperature.
The percent phosphorylation is then calculated using the following formula: [1−((Em ratio×F100%)−C100%)/((C0%−C100%)+(Em ratio×(F100%−F0%)))].
Dose-response curves are generated and inhibitory concentration (IC50) values are calculated using non-linear regression curve fit in the Dotmatics' Studies Software (Bishops Stortford, UK).

[3] = tested on: Tau phosphorylation at Ser396 (pSer396), SH-SY5Y cells; assay: Tau phosphorylation at Ser396 (pSer396) in SH-SY5Y cells, ELISA/western blot; type: cell-based, human; conditions: Homo sapiens; SH-SY5Y cells, overnight (16-18 h); read-out: pSer396 Tau EC50;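 also: cell lysates probed for reduced Tau pSer396 via ELISA (colorimetric) or western blot (chemiluminescence), both with one shared pSer396 antibody, EC50 for lowering phosphorylation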
[4] = tested on: SW480 colon carcinoma cells; assay: Cell viability assay (CellTiter-Glo) in SW480 cells; type: cell-based, human; conditions: Homo sapiens; for pEC50: 96 h, cell viability, SW480 cells, four days, CellTiter-Glo; for inhibition at 10 µM: SW480, read-out: percent inhibition at 10 μM;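 as to all read-outs here: SW480 cells stably carrying an Sp5-luciferase TCF/LEF reporter, luminescent ATP signal as viability measure, DMSO-treated cells as control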
[5] = tested on: LL29 cells (primary human fibroblasts derived from IPF patients), α-smooth muscle actin; assay: Inhibition of fibrotic process: αSMA in TGF-β1-treated primary human fibroblasts from IPF patients (LL29 cells); type: cell-based; conditions: Homo sapiens, Fibroblast; for pEC50: 96 h, % αSMA-positive LL29 cells, TGF-β1 20 ng/mL, 4 days; for inhibition at 10 µM: read-out: percent inhibition at 10 μM
Excerpt: Representative compounds were screened using primary human fibroblasts (derived from IPF patients) treated with TGF-β1 to determine their ability to inhibit the fibrotic process.
Primary human fibroblasts derived from IPF patients (LL29 cells) [^1Xiaoqiu Liu, et. al., “Fibrotic Lung Fibroblasts Show Blunted Inhibition by cAMP Due to Deficient cAMP Response Element-Binding Protein Phosphorylation”, Journal of Pharmacology and Experimental Therapeutics (2005), 315(2), 678-687; ^2Watts, K. L., et. al., “RhoA signaling modulates cyclin D1 expression in human lung fibroblasts; implications for idiopathic pulmonary fibrosis”, Respiratory Research (2006), 7(1), 88] were obtained from American Type Culture Collection (ATCC) and expanded in F12 medium supplemented with 15% Fetal Bovine Serum and 1% Penicillin/Streptomycin.
Each compound was dissolved in DMSO as a 10 mM stock and used to prepare compound source plates. Serial dilution (1:2, 11-point dose-response curves from […] to 0.94 nM) and compound transfer was performed using the ECHO 550 (Labcyte, Sunnyvale, Calif.) into 384-well clear bottom assay plates (Greiner Bio-One) with appropriate DMSO backfill for a final DMSO concentration of 0.1%. LL29 cells were plated at 1,500 cells/well in 70 μL/well F12 medium supplemented with 1% Fetal Bovine Serum. TGF-β1 (Peprotech; 20 ng/mL) was added to the plates to induce fibrosis (ref. 1 and 2 above). Wells treated with TGF-31 and containing DMSO were used as positive control, and cells with only DMSO were negative control. Cells were incubated at 37° C. and 5% CO2 for 4 days. Following incubation for 4 days, SYTOX green nucleic acid stain (Life Technologies [Thermo Fisher Scientific]) was added to the wells at a final concentration of 1 μM and incubated at room temperature for 30 min. Cells were then fixed using 4% formaldehyde (Electron Microscopy Sciences), washed 3 times with PBS followed by blocking and permeabilization using 3% Bovine Serum Albumin (BSA; Sigma) and 0.3% Triton X-100 (Sigma) in PBS. Cells were then stained with antibody specific to α-smooth muscle actin (αSMA; Abcam) (ref. 1 and 2 above) in 3% Bovine Serum Albumin (BSA; Sigma) and 0.3% Triton X-100 (Sigma) in PBS, and incubated overnight at 4° C. Cells were then washed 3 times with PBS, followed by incubation with Alexa Flor-647 conjugated secondary antibody (Life Technologies [Thermo Fisher Scientific]) and DAPI in 3% Bovine Serum Albumin (BSA; Sigma) and 0.3% Triton X-100 (Sigma) in PBS at room temperature for 1 hour. Cells were then washed 3 times with PBS and plates were sealed for imaging. αSMA staining was imaged by excitation at 630 nm and emission at 665 nm and quantified using the Compartmental Analysis program on the CellInsight CX5 (Thermo Scientific). Dead or apoptotic cells were excluded from analysis based on positive SYTOX green staining. % of total cells positive for αSMA were counted in each well and normalized to the average of 11 wells treated with TGF-β1 on the same plate using Dotmatics' Studies Software.

[6] = tested on: IL-6; assay: IL-6 inhibition in LPS-stimulated human peripheral blood mononuclear cells (HTRF); type: cell-based; conditions: Homo sapiens, PBMC; for pEC50: IL-6, LPS-stimulated huPBMCs, HTRF; for inhibition at 10 µM: read-out: percent value in parentheses below EC50 >10
Procedure: Fresh Normal PB MNC (Catalog # PB001, AllCells, Alameda, Calif.) were shipped overnight at 4° C. and resuspended in Roswell Park Memorial Institute (RPMI) 1640 Medium, with GlutaMAX Supplement (Catalog #61870127, ThermoFisher Scientific, Waltham, Mass.) supplemented with 1% Penicillin-Streptomycin (Catalog #151401633 ThermoFisher Scientific, Waltham, Mass.) and 1% fetal bovine serum (FBS) (Catalog #16140089, ThermoFisher Scientific, Waltham, Mass.) assay media.
Fresh normal human peripheral blood mononuclear cells (huPBMCs) were resuspended in 1% FBS-RPMI assay media with 1% Penicillin-Streptomycin 1% to a cell concentration of 1×10e6 cells/mL. Each compound was dissolved in DMSO (Catalog # D8418-100 ml, Sigma-Aldrich, St. Louis, Mo.) as a 10 mM stock and used to prepare compound source plates. Serial dilution (1:3, 10-point dose-response curves starting from 10 μM) and compound transfer was performed using the ECHO 550 (Labcyte, Sunnyvale, Calif.) into 384-well white Proxiplate-Plus assay plates (Catalog #6008289, PerkinElmer, Shelton, Conn.) with appropriate DMSO backfill for a final DMSO concentration of 0.25%. huPBMCs were plated at 5000 cells/well in the 384-well Proxiplate-Plus assay plates and incubated at 37° C.-5% CO2 for 2 hours. 50 ng/mL of Lipopolysaccharides from Escherichia coli 0111:B4 (Catalog # L5293-2 ML, Sigma-Aldrich, St. Louis, Mo.) was added after 2 hours and cells were incubated for another 22 hours at 37° C.-5% CO2. After 22 hour incubation, a mixture of anti-IL6 XL665 and anti-IL-6 Cryptate diluted in reconstitution buffer (Catalog #62IL6PEC, Cisbio Inc., Bedford, Mass.) was added to each well. Following incubation for 3 hours at room temperature, Homogeneous Time-Resolved Fluorescence (HTRF) was measured using the Envision (Perkin Elmer, Shelton, Conn.) at 665 nm and […]. The ratio of fluorescence at 665 nm to 620 nm was used as a readout for IL-6 quantification. All samples were processed in duplicate. Readings were normalized to DMSO treated cells and normalized activities were utilized for EC50 calculations. EC50 was determined using software generated by Dotmatics Limited (Windhill Bishops Stortford Herts, UK) using the Levenberg-Marquardt 4 parameter fitting procedure with finite different gradients.

[7] = biological target: DYRK1A kinase (Homo sapiens (Human), UniProt Q13627); assay: DYRK1A kinase assay (Ser/Thr 18 peptide Z-lyte, FRET)
[8] = DYRK1A kinase, method text calls the value IC50

Chain of GSK3β kinase (P49841 whole entry): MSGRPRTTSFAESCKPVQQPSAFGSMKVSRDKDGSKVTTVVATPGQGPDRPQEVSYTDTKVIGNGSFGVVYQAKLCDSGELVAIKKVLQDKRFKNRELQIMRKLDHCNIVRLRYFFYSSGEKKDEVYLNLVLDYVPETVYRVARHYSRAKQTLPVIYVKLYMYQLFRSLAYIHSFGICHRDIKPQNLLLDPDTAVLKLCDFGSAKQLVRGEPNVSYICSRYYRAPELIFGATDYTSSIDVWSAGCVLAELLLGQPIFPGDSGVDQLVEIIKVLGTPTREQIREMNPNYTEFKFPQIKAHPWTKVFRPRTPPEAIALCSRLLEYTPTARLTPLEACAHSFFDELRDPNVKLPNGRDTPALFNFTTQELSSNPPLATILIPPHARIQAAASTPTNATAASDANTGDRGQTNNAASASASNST

SMILES | pEC50 [1] | pEC50 [2] | pEC50 [3] | pEC50 [4] | pEC50 [5] | pEC50 [6] | pEC50 [7] | pEC50 [7, 8] | inhibition at 10 µM [4] | inhibition at 10 µM [5] | inhibition at 10 µM [6] | inhibition at 10 µM ([1]; SW480, read-out: percent inhibition at 10 μM)
[2H]c1c(NC(=O)C2CCNCC2)ncc2ccc(-c3cnn(C)c3)cc12 [Compound 5, N-(6-(1-Methyl-1H-pyrazol-4-yl)isoquinolin-3-yl-4-d)piperidine-4-carboxamide] | 6.04 | 6.94 | 6.29 | 6.13 | 6.95 | 5.98 | 8.52 | – | – | – | – | –
Cn1cc(-c2cc(F)c3cnc(NC(=O)[C@H]4CC[C@H](N(C)C)CC4)cc3c2)nn1 [Compound 10, trans-4-(Dimethylamino)-N-(8-fluoro-6-(1-methyl-1H-1,2,3-triazol-4-yl)isoquinolin-3-yl)cyclohexane-1-carboxamide] | 6.03 | 7.74 | 6.92 | 6.14 | 6.68 | 5.04 | – | 8.40 | – | – | – | –
Cn1cc(-c2ccc3cnc(NC(=O)CN4CCOCC4)cc3c2)nn1 [Compound 11, N-(6-(1-Methyl-1H-1,2,3-triazol-4-yl)isoquinolin-3-yl)-2-morpholinoacetamide] | 5.55 | 8.00 | 6.72 | < 5.00 | < 5.00 | < 5.00 | – | 8.00 | 46.3% | 3.8% | 38.4% | –
Cc1nc(-c2ccc3cnc(NC(=O)[C@H]4CC[C@H](N5CCN(C)CC5)CC4)cc3c2)co1 [Compound 12, trans-N-(6-(2-Methyloxazol-4-yl)isoquinolin-3-yl)-4-(4-methylpiperazin-1-yl)cyclohexane-1-carboxamide] | 6.03 | 6.72 | 6.36 | 6.15 | 6.99 | 5.95 | – | 7.80 | – | – | – | –
Cc1ncc(-c2ccc3cnc(NC(=O)N4CCOCC4)cc3c2)n1C [Compound 13, N-(6-(1,2-Dimethyl-1H-imidazol-5-yl)isoquinolin-3-yl)morpholine-4-carboxamide] | 5.43 | 5.90 | 5.33 | 5.46 | < 5.00 | < 5.00 | – | 7.89 | – | 38.2% | 17.6% | –
Cn1cnnc1-c1ccc2cnc(NC(=O)CN3CCOCC3)cc2c1 [Compound 14, N-(6-(4-Methyl-4H-1,2,4-triazol-3-yl)isoquinolin-3-yl)-2-morpholinoacetamide] | 5.27 | 7.32 | 6.42 | 5.26 | 5.86 | < 5.00 | – | 7.48 | – | – | 12.5% | –
Cc1nnc(-c2ccc3cnc(NC(=O)CN4CCOCC4)cc3c2)n1C [Compound 15, N-(6-(4,5-Dimethyl-4H-1,2,4-triazol-3-yl)isoquinolin-3-yl)-2-morpholinoacetamide] | < 5.00 | 7.23 | 6.01 | < 5.00 | 6.05 | < 5.00 | – | 7.21 | 38% | – | 15.8% | 40.1%
CN[C@H]1CC[C@H](C(=O)Nc2cc3cc(-c4cnc(C)o4)ccc3cn2)CC1 [Compound 16, trans-4-(Methylamino)-N-(6-(2-methyloxazol-5-yl)isoquinolin-3-yl) cyclohexane-1-carboxamide] | 5.84 | 6.91 | 6.54 | 6.09 | 6.76 | 5.99 | – | 8.30 | – | – | – | –
Cc1ncc(-c2cc(F)c3cnc(NC(=O)[C@H]4CC[C@H](N(C)C)CC4)cc3c2)o1 [Compound 17, trans-4-(Dimethylamino)-N-(8-fluoro-6-(2-methyloxazol-5-yl)isoquinolin-3-yl)cyclohexane-1-carboxamide] | 5.39 | 6.73 | 6.13 | 5.16 | 5.84 | 5.46 | – | 7.74 | – | – | – | –
Cc1ncc(-c2cc3cc(NC(=O)[C@H]4CC[C@H](N(C)C)CC4)ncc3cc2F)o1 [Compound 18, trans-4-(Dimethylamino)-N-(7-fluoro-6-(2-methyloxazol-5-yl)isoquinolin-3-yl)cyclohexane-1-carboxamide] | 6.17 | 7.17 | 6.73 | 6.23 | 6.83 | 5.90 | – | 8.52 | – | – | – | –
